Consider four molecules from patent US20210353579A1, “HIGH PENETRATION COMPOSITIONS AND USES THEREOF” (Techfields Pharma Co., Ltd., priority 2006, published 2021).

Like-named read-outs stand apart in the source and are kept apart here.

A short description of series [1]: Plasma levels after transdermal administration to hairless mice. In kind it is in vivo. To be noted: for Peak plasma concentration of parent compound after prodrug compound / t, time to peak plasma level of parent compound after prodrug compound: transdermal, 20% in 1 mL isopropanol. How it is done:
Tested compounds (20% solution or suspension in 1 mL isopropanol) are administered transdermally to the skin of intact hairless mice. The plasma levels of the parent compounds are determined by HPLC.

Another series concerns mice. Kind of series: Analgesic activity, acetic acid writhing. In kind it is in vivo. To be noted: 100 mg/kg transdermally. How it is done:
The prodrug compounds are administered either transdermally or orally. The parent compounds are administered orally. The number of writhing that occurred when mice are administered the acetic acid solution are counted, and the rate of inhibition based on the control group which was not pretreated with any test compounds is calculated. […] The A group is the control group.
(In general: Writhing tests count abdominal constrictions after an irritant is injected.)

The next series concerns rats. Briefly: Antipyretic activity, E. coli suspension as pyrogen. In kind it is in vivo. The note with it: 100 mg/kg transdermally; in °C (unit assumed). The method, then:
Rats are administered with sterilized E. coli suspension as a pyrogen. Each group of rats are administered with a prodrug compounds or parent compounds at a dosage specified below. The prodrug compounds are administered either orally or transdermally. The parent compounds are administered orally.

For series [2], the system named is Human breast cancer cells (BCAP-37). Briefly: Human breast cancer xenograft in nude mice, topical. How it is done:
Human breast cancer cells (BCAP-37, 2-3 mm^3 of tumor tissue was used in each mouse) are subcutaneously xenografted into the front leg of nude mice (BALB, 12 groups, 7 mice each group). […] Then 30 μl of 5% (equal to 1.5 mg of the HPPs) diethylaminoethyl acetylsalicylate.acetylsalicylic acid salt (P-1, in acetone); 1-piperidinepropyl 2[(2,6-dichlorophenyl)amino]benzene acetate.AcOH (P-2, in water), 1-pyrrolidinepropyl 2-(3-benzoylphenyl) propionate.AcOH (P-3, in water), 4-piperidinemethyl 2-(3-phenoxyphenyl)propionate.AcOH (P-4, in water), 3-piperidinemethyl 2-(ρ-isobutylphenyl) propionate.AcOH (P-5, in water), diethylaminoethyl 1-(p-chlorobenzoyl)-5-methoxy-2-methylindole 3-acetate.AcOH (P-11, in water), 2-(4-morpholinyl)ethyl (Z)-5-fluoro-2-methyl-1-[(4-methylsulfinyl) phenylmethylene]-1H-indene-3-acetate.AcOH (P-12, in water), diethylaminoethyl
Background: In xenograft studies the graft and the host belong to different species.

Series [3] in a line: Solubility in water / aqueous solubility of HPPs and parent drugs. The note with it: medium not given.
Another series concerns human skin tissue. Kind of series: In vitro penetration rate through human skin, modified Franz cells. The note with it: Franz cell; for In vitro penetration rate (apparent flux), prodrug compounds: 20% solution in 0.2 M phosphate buffer pH 7.4, human skin.
The next series is described as follows: in vivo. The note with it: rat.
The test system of the next series is Chinese white rabbits. Briefly: Malassezia-induced lesions similar to psoriasis. Type of series: in vivo, rabbit. To be noted: 5% aqueous solution twice per day, 10 days after application. An excerpt:
Heavy suspensions of Malassezia [Rosenberg, E. W., et al., Mycopathologia, 72, 147-154 (1980)] were applied to the shaved skin on the backs of the Chinese white rabbits (n=4×6) twice (at 7 am and 7 pm) per day for 2 weeks, lesions similar to psoriasis resulted.
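Wherever LD50 is given: acute toxicity in rats expressed as LD50, determined for both prodrugs and their parent compounds.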
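Wherever LD50 of HPP is given: acute toxicity in rats expressed as LD50, determined for both prodrugs and their parent compounds.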

Procedure for in vivo: The acute toxicity of the prodrug compounds and parent compounds are measured by LD50 of rat.

Take `CC(=O)O.CCN(CC)CCOC(=O)Cc1c(C)n(C(=O)c2ccc(Cl)cc2)c2ccc(OC)cc12` [diethylaminoethyl 1-(p-chlorobenzoyl)-5-methoxy-2-methylindole 3-acetate.AcOH]: in [1] (hairless mice), the “Peak plasma concentration of parent compound after prodrug compound” value was 20 mg/L and the “t, time to peak plasma level of parent compound after prodrug compound” value (“t, time … after prodrug compound” for short) came out at 50 min. In addition, in the series with mice (30 min before acetic acid), the “% (rate of writhing inhibition)” value was 55% and the “No. of Writhing” value worked out at 15.6. Moreover, in the series with rats, the “body temperature, t = 0 min” value was determined as 37.35 ± 0.06; the “body temperature, t = 90 min” value stood at 36.91 ± 0.05; the “body temperature, t = 180 min” value was 36.85 ± 0.08; the “body temperature, t = 270 min” value amounted to 36.79 ± 0.07. In addition, the Tumor size in series [2] (day 42, 30 μl of 5% (1.5 mg) topically every 8 hours from day 14, control 800 ± 100) is recorded as 210 ± 100 mm^3. The molecule also yielded a Mouse weight in series [2] (mouse, in vivo) of 21 ± 2 g. Moreover, the “LD50 of HPP” value in the series on rat (rats) turned out to be 100 mg/kg. Also, in [3], the “Solubility of HPP” value was more than 250 mg/mL. For the same molecule, the “In vitro penetration rate (apparent flux), prodrug compounds” value with human skin tissue is 1100 μg/cm^2/h.

Consider `CC1=C(CC(=O)O)c2cc(F)ccc2/C1=C\c1ccc([S+](C)[O-])cc1` (stereo not drawn) [Sulindac, sulindac, reference compound], for which the “t, time to peak plasma level after parent compound” value in series [1] (parent compound administered (time when taken orally)) was 1 to 2 h. The “Peak plasma concentration after parent compound” value in series [1] (parent compound administered, hairless mice) amounted to 0.1 mg/L. In the series “in vivo”, the LD50 came to 260 mg/kg. In addition, in the series with human skin tissue (20% suspension in 0.2 M phosphate buffer pH 7.4, human skin, detection limit 1), the “In vitro penetration rate (apparent flux), parent compounds” value turned out to be 10 μg/cm^2/h.

In the case of `CC(=O)O.CCN(CC)CCOC(=O)Cc1cc(C)c(C(=O)c2ccc(Cl)cc2)n1C` [diethylaminoethyl 5-(4-Chlorobenzoyl)-1,4-dimethyl-1H-pyrrole-2-acetate.AcOH], in [1] (hairless mice), the “Peak plasma concentration of parent compound after prodrug compound” value amounted to 20 mg/L and the “t, time … after prodrug compound” value is 50 min. Also, in the series with mice (30 min before acetic acid), the “% (rate of writhing inhibition)” value was 55% and the “No. of Writhing” value came out at 15.6. In the series with rats, the “body temperature, t = 0 min” value was determined as 37.21 ± 0.07; the “body temperature, t = 90 min” value worked out at 36.82 ± 0.06; the “body temperature, t = 180 min” value is reported as 36.70 ± 0.05; the “body temperature, t = 270 min” value is 36.70 ± 0.08. Besides, in the series with Chinese white rabbits, the “lesions similar to psoriasis” value is “the lesions were resolved”. Also, the “LD50 of HPP” value with rat (rat, in vivo) turned out to be 200 mg/kg. In addition, in the series on human skin tissue, the “In vitro penetration rate (apparent flux), prodrug compounds” value is recorded as 1200 μg/cm^2/h.

Regarding `CC(=O)O.CCN(CC)CCOC(=O)c1ccccc1Nc1cccc(C(F)(F)F)c1` [diethylaminoethyl 2-[[(3-(trifluoromethyl)phenyl)amino]benzoate.AcOH], in series [1] (hairless mice), the “Peak plasma concentration of parent compound after prodrug compound” value is 20 mg/L and the “t, time … after prodrug compound” value is reported as 50 min. In the series on mice (60 minutes before acetic acid), the “% (rate of writhing inhibition)” value is 54% and the “No. of Writhing” value is recorded as 16.1. Moreover, in the series on rats, the “body temperature, t = 0 min” value is 37.27 ± 0.06; the “body temperature, t = 90 min” value is 36.76 ± 0.05; the “body temperature, t = 180 min” value came to 36.65 ± 0.08; the “body temperature, t = 270 min” value is on record as 36.49 ± 0.07. The “LD50 of HPP” value in the series on rat (rats) was found to be 800 mg/kg. The “Solubility of HPP” value in series [3] was more than 400 mg/mL. In addition, in the series with human skin tissue, the “In vitro penetration rate (apparent flux), prodrug compounds” value is 2200 μg/cm^2/h.

One may read the LD50 as the dose at which mortality reaches 50%. Higher therefore signals lower toxicity.
